Measured values reported in patent publication US20260092074A1, “Annelated Pyridines as Steroidogenesis Inhibitors, Preparation Method and Use Thereof” (Guangzhou Vinnocent Pharmaceutical Limited, priority 2022, published 2026).

Legend:
human CYP11B1 = biological target: T1, human CYP11B1 (Homo sapiens, UniProt P15538); assay: Inhibition of hCYP11B1 in transfected V79 cells; format: cell-based; conditions: hamster V79 cells expressing human CYP11B1; substrate 11-deoxycortisol 200 nM
T1 construct: expressed in transfected cells
T1 sequence (P15538 25-503): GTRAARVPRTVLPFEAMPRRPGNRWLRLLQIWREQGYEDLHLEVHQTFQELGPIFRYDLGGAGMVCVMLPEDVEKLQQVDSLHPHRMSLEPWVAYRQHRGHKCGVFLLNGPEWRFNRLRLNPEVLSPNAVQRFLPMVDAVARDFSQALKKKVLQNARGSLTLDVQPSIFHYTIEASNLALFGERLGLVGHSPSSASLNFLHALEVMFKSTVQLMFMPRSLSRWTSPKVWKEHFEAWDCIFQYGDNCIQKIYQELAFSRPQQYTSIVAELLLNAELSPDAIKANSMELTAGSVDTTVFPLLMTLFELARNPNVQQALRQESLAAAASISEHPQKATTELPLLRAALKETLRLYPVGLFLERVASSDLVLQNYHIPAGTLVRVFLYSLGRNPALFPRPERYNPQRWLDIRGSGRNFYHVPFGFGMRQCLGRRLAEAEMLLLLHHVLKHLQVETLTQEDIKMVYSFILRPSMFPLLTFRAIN
How it was run: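 V79 hamster cells stably expressing human CYP11B1 and rat NADPH-P450 reductase were preincubated with compounds for 2 h. 11-Deoxycortisol (200 nM) was then added as substrate for 30 min before ethyl acetate quench. Substrate and product were quantified by LC-MS/MS or HPLC at 260 nm, and IC50 was derived from percent inhibition.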

human CYP11B2 = biological target: T2, human CYP11B2 (Homo sapiens, UniProt P19099); assay: Inhibition of hCYP11B2 in transfected V79 cells; format: cell-based; conditions: hamster V79 cells expressing human CYP11B2; substrate 11-deoxycorticosterone 200 nM
T2 construct: expressed in transfected cells
T2 sequence (P19099 25-503): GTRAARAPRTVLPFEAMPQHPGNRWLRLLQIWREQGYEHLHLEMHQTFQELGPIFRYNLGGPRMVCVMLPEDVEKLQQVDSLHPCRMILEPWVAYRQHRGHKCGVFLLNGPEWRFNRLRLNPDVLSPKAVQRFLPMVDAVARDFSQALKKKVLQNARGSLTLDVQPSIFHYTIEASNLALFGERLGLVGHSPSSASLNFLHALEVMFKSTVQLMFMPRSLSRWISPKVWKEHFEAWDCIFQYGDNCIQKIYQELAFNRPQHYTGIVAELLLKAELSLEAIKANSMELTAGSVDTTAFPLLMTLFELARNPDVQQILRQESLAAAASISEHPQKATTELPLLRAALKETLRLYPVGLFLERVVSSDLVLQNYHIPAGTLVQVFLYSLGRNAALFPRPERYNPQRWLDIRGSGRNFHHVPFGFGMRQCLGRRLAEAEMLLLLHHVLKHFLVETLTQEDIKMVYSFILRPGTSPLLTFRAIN
How it was run: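 Hamster V79 cells stably co-expressing human CYP11B2 and rat NADPH-P450 reductase were pre-incubated with compounds for 2 hours, then given 200 nM 11-deoxycorticosterone for 30 minutes before ethyl acetate quench. Substrate and product were quantified by LC-MS/MS or HPLC at 260 nm, and IC50 was derived from percent inhibition.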

IC50 (human CYP11B1) [nM]	IC50 (human CYP11B2) [nM]	SMILES
185	1	N#Cc1ccc(-c2cncc3c2OCCN3C(=O)C2CN(Cc3cccc(C#N)c3)C2)cc1 [O80, 3-((3-(8-(4-Cyanophenyl)-3,4-dihydro-2H-pyrido[4,3-b][1,4]oxazine-4-carbonyl)azetidin-1-yl)methyl)benzonitrile]
72	0.6	N#Cc1ccc(CN2CC(C(=O)N3CCOc4c(-c5ccc(C#N)cc5)cncc43)C2)cc1 [O81, 4-(4-(1-(4-Cyanobenzyl)azetidine-3-carbonyl)-3,4-dihydro-2H-pyrido[4,3-b][1,4]oxazin-8-yl)benzonitrile]
69	1.4	COc1cccc(CN2CC(C(=O)N3CCOc4c(-c5ccc(C#N)cc5)cncc43)C2)c1 [O82, 4-(4-(1-(3-Methoxybenzyl)azetidine-3-carbonyl)-3,4-dihydro-2H-pyrido[4,3-b][1,4]oxazin-8-yl)benzonitrile]
112	1	COc1ccc(CN2CC(C(=O)N3CCOc4c(-c5ccc(C#N)cc5)cncc43)C2)cc1 [O83, 4-(4-(1-(4-Methoxybenzyl)azetidine-3-carbonyl)-3,4-dihydro-2H-pyrido[4,3-b][1,4]oxazin-8-yl)benzonitrile]
53	1.6	N#Cc1ccc(-c2cncc3c2OCCN3C(=O)C2CN(c3cccc(F)c3)C2)cc1 [O84, 4-(4-(1-(3-Fluorophenyl)azetidine-3-carbonyl)-3,4-dihydro-2H-pyrido[4,3-b][1,4]oxazin-8-yl)benzonitrile]
64	4.6	N#Cc1ccc(-c2cncc3c2OCCN3C(=O)C2CN(c3ccc(F)cc3)C2)cc1 [O85, 4-(4-(1-(4-Fluorophenyl)azetidine-3-carbonyl)-3,4-dihydro-2H-pyrido[4,3-b][1,4]oxazin-8-yl)benzonitrile]
72	0.8	N#Cc1ccc(-c2cncc3c2OCCN3C(=O)C2CN(c3cccc(C#N)c3)C2)cc1 [O86, 3-(3-(8-(4-Cyanophenyl)-3,4-dihydro-2H-pyrido[4,3-b][1,4]oxazine-4-carbonyl)azetidin-1-yl)benzonitrile]
55	2.5	N#Cc1ccc(-c2cncc3c2OCCN3C(=O)C2CN(c3ccc(C#N)cc3)C2)cc1 [O87, 4-(3-(8-(4-Cyanophenyl)-3,4-dihydro-2H-pyrido[4,3-b][1,4]oxazine-4-carbonyl)azetidin-1-yl)benzonitrile]
485	6	O=C(C1CN(Cc2cccc(F)c2)C1)N1CCOc2c(-c3ccc4ncsc4c3)cncc21 [O88, (8-(Benzo[d]thiazol-6-yl)-2,3-dihydro-4H-pyrido[4,3-b][1,4]oxazin-4-yl)(1-(3-fluorobenzyl)azetidin-3-yl)methanone]
2550	15.6	O=C1Cc2cc(-c3cncc4c3OCCN4C(=O)C3CN(Cc4cccc(F)c4)C3)ccc2N1 [O89, 5-(4-(1-(3-Fluorobenzyl)azetidine-3-carbonyl)-3,4-dihydro-2H-pyrido[4,3-b][1,4]oxazin-8-yl)indolin-2-one]
3260	48.8	O=C(C1CN(Cc2cccc(F)c2)C1)N1CCOc2c(-c3ccc4nccn4c3)cncc21 [O90, (1-(3-Fluorobenzyl)azetidin-3-yl)(8-(imidazo[1,2-a]pyridin-6-yl)-2,3-dihydro-4H-pyrido[4,3-b][1,4]oxazin-4-yl)methanone]
4160	92	O=C(C1CN(Cc2cccc(F)c2)C1)N1CCOc2c(-c3cc4ccc(Cl)cc4[nH]3)cncc21 [O91, (8-(6-Chloro-1H-indol-2-yl)-2,3-dihydro-4H-pyrido[4,3-b][1,4]oxazin-4-yl)(1-(3-fluorobenzyl)azetidin-3-yl)methanone]
4440	28.4	N#Cc1ccc2cc(-c3cncc4c3OCCN4C(=O)C3CN(Cc4cccc(F)c4)C3)[nH]c2c1 [O92, 2-(4-(1-(3-Fluorobenzyl)azetidine-3-carbonyl)-3,4-dihydro-2H-pyrido[4,3-b][1,4]oxazin-8-yl)-1H-indole-6-carbonitrile]
4170	90	O=C(C1CN(Cc2cccc(F)c2)C1)N1CCOc2c(-c3cc4ccc(F)cc4[nH]3)cncc21 [O93, (8-(6-Fluoro-1H-indol-2-yl)-2,3-dihydro-4H-pyrido[4,3-b][1,4]oxazin-4-yl)(1-(3-fluorobenzyl)azetidin-3-yl)methanone]
381	4.7	N#Cc1ccc2[nH]c(-c3cncc4c3OCCN4C(=O)C3CN(Cc4cccc(F)c4)C3)cc2c1 [O94, 2-(4-(1-(3-Fluorobenzyl)azetidine-3-carbonyl)-3,4-dihydro-2H-pyrido[4,3-b][1,4]oxazin-8-yl)-1H-indole-5-carbonitrile]
4590	41	O=C(C1CN(Cc2cccc(F)c2)C1)N1CCOc2c(-c3cc4cc(Cl)ccc4o3)cncc21 [O95, (8-(5-Chlorobenzofuran-2-yl)-2,3-dihydro-4H-pyrido[4,3-b][1,4]oxazin-4-yl)(1-(3-fluorobenzyl)azetidin-3-yl)methanone]
1340	5.2	N#Cc1ccc2oc(-c3cncc4c3OCCN4C(=O)C3CN(Cc4cccc(F)c4)C3)cc2c1 [O96, 2-(4-(1-(3-Fluorobenzyl)azetidine-3-carbonyl)-3,4-dihydro-2H-pyrido[4,3-b][1,4]oxazin-8-yl)benzofuran-5-carbonitrile]
219	35	N#CN1CC=C(c2cncc3c2OCCN3C(=O)C2CN(Cc3cccc(F)c3)C2)CC1 [O97, 4-(4-(1-(3-Fluorobenzyl)azetidine-3-carbonyl)-3,4-dihydro-2H-pyrido[4,3-b][1,4]oxazin-8-yl)-3,6-dihydropyridine-1 (2H)-carbonitrile]
677	46	N#CN1CCN(c2cncc3c2OCCN3C(=O)C2CN(Cc3cccc(F)c3)C2)CC1 [O98, 4-(4-(1-(3-Fluorobenzyl)azetidine-3-carbonyl)-3,4-dihydro-2H-pyrido[4,3-b][1,4]oxazin-8-yl)piperazine-1-carbonitrile]
652	39	N#CN1CCN(c2cncc3c2OCCN3C(=O)C2CN(Cc3cccc(F)c3)C2)C(=O)C1 [O99, 4-(4-(1-(3-Fluorobenzyl)azetidine-3-carbonyl)-3,4-dihydro-2H-pyrido[4,3-b][1,4]oxazin-8-yl)-3-oxopiperazine-1-carbonitrile]
102	0.3	COc1cccc(C2=NOC(S(=O)(=O)N3CCOc4c(-c5ccc(C#N)cc5)cncc43)C2)c1 (stereo not shown) [O100, 4-(4-((3-(3-Methoxyphenyl)-4,5-dihydroisoxazol-5-yl)sulfonyl)-3,4-dihydro-2H-pyrido[4,3-b][1,4]oxazin-8-yl)benzonitrile]
57	0.4	N#Cc1ccc(-c2cncc3c2OCCN3S(=O)(=O)C2CC(c3cccc(C#N)c3)=NO2)cc1 (stereo not shown) [O101, 3-(5-((8-(4-Cyanophenyl)-2,3-dihydro-4H-pyrido[4,3-b][1,4]oxazin-4-yl)sulfonyl)-4,5-dihydroisoxazol-3-yl)benzonitrile]
62	0.3	N#Cc1ccc(-c2cncc3c2OCCN3S(=O)(=O)C2CC(c3ccccc3)=NO2)cc1 (stereo not shown) [O102, 4-(4-((3-Phenyl-4,5-dihydroisoxazol-5-yl)sulfonyl)-3,4-dihydro-2H-pyrido[4,3-b][1,4]oxazin-8-yl)benzonitrile]
79	0.5	N#Cc1ccc(-c2cncc3c2OCCN3S(=O)(=O)C2CC(Cc3ccccc3)=NO2)cc1 (stereo not shown) [O103, 4-(4-((3-benzyl-4,5-dihydroisoxazol-5-yl)sulfonyl)-3,4-dihydro-2H-pyrido[4,3-b][1,4]oxazin-8-yl)benzonitrile]
468	4.1	N#Cc1ccc(-c2cncc3c2OCCN3C(=O)[C@H]2CCN(Cc3cccc(F)c3)C2)cc1 [O104, (S)-4-(4-(1-(3-Fluorobenzyl)pyrrolidine-3-carbonyl)-3,4-dihydro-2H-pyrido[4,3-b][1,4]oxazin-8-yl)benzonitrile]
650	29	N#Cc1ccc(-c2cncc3c2OCCN3C(=O)[C@@H]2CCN(Cc3cccc(F)c3)C2)cc1 [O105, (R)-4-(4-(1-(3-Fluorobenzyl)pyrrolidine-3-carbonyl)-3,4-dihydro-2H-pyrido[4,3-b][1,4]oxazin-8-yl)benzonitrile]
